Assay results from ChEMBL document CHEMBL4152312, “Identification of fused pyrimidines as interleukin 17 secretion inhibitors” (Eur J Med Chem, 2018).

How the values were obtained:
[1] = molecular target: T1, Mitogen-activated protein kinase 13 (Homo sapiens) (UniProt O15264); experiment: Inhibition of recombinant human full length His-tagged p38-delta expressed in baculovirus expression system at 500 nM by Z-LYTE assay relative to control
T1 sequence (whole entry): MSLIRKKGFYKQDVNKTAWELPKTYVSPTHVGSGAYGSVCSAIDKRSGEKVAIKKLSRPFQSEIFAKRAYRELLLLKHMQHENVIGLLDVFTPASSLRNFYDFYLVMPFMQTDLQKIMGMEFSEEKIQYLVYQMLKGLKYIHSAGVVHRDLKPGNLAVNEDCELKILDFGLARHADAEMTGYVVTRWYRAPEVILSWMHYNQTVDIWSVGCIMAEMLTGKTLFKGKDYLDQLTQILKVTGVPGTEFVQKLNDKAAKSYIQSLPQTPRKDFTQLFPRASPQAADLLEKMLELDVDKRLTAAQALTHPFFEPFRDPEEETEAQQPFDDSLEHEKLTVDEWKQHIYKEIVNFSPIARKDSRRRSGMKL

[2] = molecular target: Platelet-derived growth factor receptor beta (Homo sapiens) (UniProt P09619); experiment: Inhibition of recombinant human His-tagged PDGFRbeta cytoplasmic domain expressed in baculovirus expression system at 500 nM by Z-LYTE assay relative to control
[3] = molecular target: T2, Calcium/calmodulin-dependent protein kinase type IV (Homo sapiens) (UniProt Q16566); experiment: Inhibition of recombinant human full length GST-tagged CAMK4 expressed in Escherichia coli at 500 nM by Z-LYTE assay relative to control
T2 sequence (whole entry): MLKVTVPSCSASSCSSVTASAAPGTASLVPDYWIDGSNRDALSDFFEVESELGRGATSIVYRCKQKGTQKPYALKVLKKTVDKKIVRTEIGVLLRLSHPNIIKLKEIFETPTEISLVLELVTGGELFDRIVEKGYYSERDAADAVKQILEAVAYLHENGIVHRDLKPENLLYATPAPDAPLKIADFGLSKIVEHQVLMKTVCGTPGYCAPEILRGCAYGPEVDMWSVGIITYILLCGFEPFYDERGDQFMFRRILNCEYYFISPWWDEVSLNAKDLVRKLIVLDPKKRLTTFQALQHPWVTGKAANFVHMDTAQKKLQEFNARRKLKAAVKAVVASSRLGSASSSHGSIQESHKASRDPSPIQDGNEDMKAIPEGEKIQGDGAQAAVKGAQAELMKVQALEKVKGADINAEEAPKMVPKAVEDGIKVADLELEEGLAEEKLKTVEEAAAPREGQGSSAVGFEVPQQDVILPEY

[4] = molecular target: Vascular endothelial growth factor receptor 2 (Homo sapiens) (UniProt P35968); experiment: Inhibition of recombinant human His-tagged KDR cytoplasmic domain (789 to 1356 residues) expressed in baculovirus expression system at 500 nM by Z-LYTE assay relative to control
PBMC = experiment: Inhibition of IL-17 secretion in anti-human CD3 antibody/anti-human CD28 antibody/IL23-stimulated human PBMC after 48 hrs by ELISA; type: functional, cell-based
[5] = molecular target: Tyrosine-protein kinase Lck (Homo sapiens) (UniProt P06239); experiment: Inhibition of recombinant full-length human His-tagged LCK expressed in baculovirus expression system at 500 nM by Z-LYTE assay relative to control
[6] = molecular target: T3, Inhibitor of nuclear factor kappa-B kinase subunit beta (Homo sapiens) (UniProt O14920); experiment: Inhibition of recombinant full-length human GST-tagged IKKbeta expressed in baculovirus expression system at 500 nM by Z-LYTE assay relative to control
T3 sequence (whole entry): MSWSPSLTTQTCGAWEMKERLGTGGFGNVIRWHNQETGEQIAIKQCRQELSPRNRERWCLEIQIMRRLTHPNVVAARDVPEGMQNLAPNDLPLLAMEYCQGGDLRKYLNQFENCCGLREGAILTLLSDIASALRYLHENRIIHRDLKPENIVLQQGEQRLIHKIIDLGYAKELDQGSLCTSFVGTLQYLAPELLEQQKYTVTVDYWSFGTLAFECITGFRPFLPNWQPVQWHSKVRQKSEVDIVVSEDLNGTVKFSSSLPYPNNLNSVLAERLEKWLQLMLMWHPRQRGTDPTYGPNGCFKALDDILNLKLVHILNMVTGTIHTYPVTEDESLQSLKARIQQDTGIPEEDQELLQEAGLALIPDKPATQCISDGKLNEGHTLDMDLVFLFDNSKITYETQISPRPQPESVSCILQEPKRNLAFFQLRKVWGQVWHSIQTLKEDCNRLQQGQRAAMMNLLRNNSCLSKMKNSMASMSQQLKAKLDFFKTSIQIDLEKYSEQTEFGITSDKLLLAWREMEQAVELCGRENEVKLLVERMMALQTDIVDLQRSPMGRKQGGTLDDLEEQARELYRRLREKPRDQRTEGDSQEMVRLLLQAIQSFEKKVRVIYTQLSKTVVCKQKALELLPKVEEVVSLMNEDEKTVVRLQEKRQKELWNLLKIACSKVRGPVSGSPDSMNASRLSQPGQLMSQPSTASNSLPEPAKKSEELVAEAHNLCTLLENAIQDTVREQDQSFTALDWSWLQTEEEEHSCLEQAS

[7] = molecular target: T4, Dual specificity mitogen-activated protein kinase kinase 6 (Homo sapiens) (UniProt P52564); experiment: Inhibition of recombinant human full length His-tagged MKK6 expressed in baculovirus expression system at 500 nM by Z-LYTE assay relative to control
T4 sequence (whole entry): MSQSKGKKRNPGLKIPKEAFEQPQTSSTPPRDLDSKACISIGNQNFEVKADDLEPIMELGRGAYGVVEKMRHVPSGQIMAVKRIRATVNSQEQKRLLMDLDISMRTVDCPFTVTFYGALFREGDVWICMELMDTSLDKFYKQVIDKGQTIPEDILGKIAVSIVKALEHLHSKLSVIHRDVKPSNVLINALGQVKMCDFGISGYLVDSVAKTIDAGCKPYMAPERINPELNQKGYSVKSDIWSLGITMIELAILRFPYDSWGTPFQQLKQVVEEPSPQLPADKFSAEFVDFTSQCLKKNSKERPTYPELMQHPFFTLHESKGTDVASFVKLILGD

[8] = molecular target: Tyrosine-protein kinase Lyn (Homo sapiens) (UniProt P07948); experiment: Inhibition of recombinant human full-length N-terminal His-tagged LYN-B expressed in baculovirus expression system at 500 nM by Z-LYTE assay relative to control
[9] = molecular target: Tyrosine-protein kinase JAK1 (Homo sapiens) (UniProt P23458); experiment: Inhibition of recombinant human GST-tagged JAK1 cytoplasmic domain expressed in baculovirus expression system at 500 nM by Z-LYTE assay relative to control
[10] = molecular target: Tyrosine-protein kinase JAK2 (Homo sapiens) (UniProt O60674); experiment: Inhibition of recombinant human GST-tagged JAK2 cytoplasmic domain (809 to […] residues) expressed in baculovirus expression system at 500 nM by Z-LYTE assay relative to control
[11] = molecular target: RAC-alpha serine/threonine-protein kinase (Homo sapiens) (UniProt P31749); experiment: Inhibition of recombinant human full length His-tagged AKT1 expressed in baculovirus expression system at 500 nM by Z-LYTE assay relative to control
RAC-alpha serine/threonine-protein kinase (Homo sapiens), sequence (P31749 whole entry): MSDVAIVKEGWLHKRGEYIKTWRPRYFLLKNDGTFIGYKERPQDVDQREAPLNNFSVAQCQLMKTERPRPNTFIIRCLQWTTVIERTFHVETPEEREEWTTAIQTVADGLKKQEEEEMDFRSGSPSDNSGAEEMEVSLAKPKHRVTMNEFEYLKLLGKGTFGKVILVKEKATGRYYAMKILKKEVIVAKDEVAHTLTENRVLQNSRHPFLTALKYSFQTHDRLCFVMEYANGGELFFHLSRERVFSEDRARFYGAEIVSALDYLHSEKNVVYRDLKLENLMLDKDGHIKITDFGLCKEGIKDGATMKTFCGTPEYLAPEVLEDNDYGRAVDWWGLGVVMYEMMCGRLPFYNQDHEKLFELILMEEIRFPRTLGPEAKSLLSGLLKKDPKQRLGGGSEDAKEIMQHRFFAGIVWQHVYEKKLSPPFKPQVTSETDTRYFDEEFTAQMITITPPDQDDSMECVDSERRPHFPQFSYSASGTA

Tyrosine-protein kinase Lyn (Homo sapiens), sequence (P07948 2-512 limits assumed): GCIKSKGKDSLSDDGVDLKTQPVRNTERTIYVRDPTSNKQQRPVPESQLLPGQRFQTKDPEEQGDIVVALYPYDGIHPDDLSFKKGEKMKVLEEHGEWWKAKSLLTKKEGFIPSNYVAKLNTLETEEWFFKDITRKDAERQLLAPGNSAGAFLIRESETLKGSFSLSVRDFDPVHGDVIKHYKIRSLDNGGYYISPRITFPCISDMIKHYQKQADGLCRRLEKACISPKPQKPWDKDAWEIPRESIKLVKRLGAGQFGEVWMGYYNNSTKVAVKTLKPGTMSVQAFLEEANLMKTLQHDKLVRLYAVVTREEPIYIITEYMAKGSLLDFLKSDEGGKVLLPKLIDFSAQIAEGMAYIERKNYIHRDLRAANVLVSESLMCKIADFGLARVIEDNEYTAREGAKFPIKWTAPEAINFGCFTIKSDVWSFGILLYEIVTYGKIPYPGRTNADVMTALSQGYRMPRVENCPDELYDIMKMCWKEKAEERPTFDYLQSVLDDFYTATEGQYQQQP
Platelet-derived growth factor receptor beta (Homo sapiens), sequence (P09619 whole entry, the tested form may be a part): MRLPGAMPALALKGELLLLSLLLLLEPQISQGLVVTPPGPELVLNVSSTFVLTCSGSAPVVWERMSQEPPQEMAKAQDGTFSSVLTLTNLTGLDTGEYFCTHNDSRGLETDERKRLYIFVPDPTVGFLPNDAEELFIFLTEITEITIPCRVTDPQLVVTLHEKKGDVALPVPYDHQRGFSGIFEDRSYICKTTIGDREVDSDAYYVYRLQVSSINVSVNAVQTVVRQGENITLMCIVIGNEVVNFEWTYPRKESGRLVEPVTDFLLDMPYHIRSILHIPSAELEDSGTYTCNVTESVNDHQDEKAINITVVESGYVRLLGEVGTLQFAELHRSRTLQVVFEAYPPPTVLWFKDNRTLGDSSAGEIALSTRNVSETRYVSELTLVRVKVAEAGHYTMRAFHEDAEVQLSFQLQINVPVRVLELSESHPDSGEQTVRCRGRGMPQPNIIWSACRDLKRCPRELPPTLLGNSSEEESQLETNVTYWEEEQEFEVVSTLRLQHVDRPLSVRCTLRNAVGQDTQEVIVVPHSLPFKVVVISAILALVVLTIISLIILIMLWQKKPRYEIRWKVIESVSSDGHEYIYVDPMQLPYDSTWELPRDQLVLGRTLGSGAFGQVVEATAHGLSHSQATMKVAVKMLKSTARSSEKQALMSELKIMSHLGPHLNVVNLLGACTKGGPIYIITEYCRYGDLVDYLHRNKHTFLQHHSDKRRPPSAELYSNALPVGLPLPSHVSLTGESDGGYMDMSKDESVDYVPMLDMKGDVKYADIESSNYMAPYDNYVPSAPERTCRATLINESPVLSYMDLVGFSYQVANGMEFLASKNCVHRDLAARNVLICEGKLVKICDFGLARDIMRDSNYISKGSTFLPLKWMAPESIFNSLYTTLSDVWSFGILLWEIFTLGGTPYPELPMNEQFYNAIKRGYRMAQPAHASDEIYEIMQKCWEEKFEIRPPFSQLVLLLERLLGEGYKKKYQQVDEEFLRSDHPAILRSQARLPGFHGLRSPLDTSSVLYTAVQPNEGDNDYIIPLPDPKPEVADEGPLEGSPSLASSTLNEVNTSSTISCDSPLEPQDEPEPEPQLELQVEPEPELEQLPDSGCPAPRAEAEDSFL
Tyrosine-protein kinase Lck (Homo sapiens), sequence (P06239 2-509 limits assumed): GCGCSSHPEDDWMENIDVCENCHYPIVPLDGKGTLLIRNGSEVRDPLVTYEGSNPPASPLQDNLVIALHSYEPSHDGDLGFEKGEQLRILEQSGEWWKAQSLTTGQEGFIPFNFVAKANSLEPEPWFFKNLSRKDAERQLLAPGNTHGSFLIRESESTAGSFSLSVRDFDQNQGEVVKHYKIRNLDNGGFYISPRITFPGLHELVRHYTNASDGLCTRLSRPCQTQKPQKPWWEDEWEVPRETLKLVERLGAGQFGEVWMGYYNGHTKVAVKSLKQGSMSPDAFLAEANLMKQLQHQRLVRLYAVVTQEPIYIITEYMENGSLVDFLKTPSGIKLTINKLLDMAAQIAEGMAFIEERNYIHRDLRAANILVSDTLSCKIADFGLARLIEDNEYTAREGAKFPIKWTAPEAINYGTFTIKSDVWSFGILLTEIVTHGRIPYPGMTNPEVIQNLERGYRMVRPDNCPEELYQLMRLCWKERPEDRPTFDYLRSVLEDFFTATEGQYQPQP
Tyrosine-protein kinase JAK1 (Homo sapiens), sequence (P23458 whole entry, the tested form may be a part): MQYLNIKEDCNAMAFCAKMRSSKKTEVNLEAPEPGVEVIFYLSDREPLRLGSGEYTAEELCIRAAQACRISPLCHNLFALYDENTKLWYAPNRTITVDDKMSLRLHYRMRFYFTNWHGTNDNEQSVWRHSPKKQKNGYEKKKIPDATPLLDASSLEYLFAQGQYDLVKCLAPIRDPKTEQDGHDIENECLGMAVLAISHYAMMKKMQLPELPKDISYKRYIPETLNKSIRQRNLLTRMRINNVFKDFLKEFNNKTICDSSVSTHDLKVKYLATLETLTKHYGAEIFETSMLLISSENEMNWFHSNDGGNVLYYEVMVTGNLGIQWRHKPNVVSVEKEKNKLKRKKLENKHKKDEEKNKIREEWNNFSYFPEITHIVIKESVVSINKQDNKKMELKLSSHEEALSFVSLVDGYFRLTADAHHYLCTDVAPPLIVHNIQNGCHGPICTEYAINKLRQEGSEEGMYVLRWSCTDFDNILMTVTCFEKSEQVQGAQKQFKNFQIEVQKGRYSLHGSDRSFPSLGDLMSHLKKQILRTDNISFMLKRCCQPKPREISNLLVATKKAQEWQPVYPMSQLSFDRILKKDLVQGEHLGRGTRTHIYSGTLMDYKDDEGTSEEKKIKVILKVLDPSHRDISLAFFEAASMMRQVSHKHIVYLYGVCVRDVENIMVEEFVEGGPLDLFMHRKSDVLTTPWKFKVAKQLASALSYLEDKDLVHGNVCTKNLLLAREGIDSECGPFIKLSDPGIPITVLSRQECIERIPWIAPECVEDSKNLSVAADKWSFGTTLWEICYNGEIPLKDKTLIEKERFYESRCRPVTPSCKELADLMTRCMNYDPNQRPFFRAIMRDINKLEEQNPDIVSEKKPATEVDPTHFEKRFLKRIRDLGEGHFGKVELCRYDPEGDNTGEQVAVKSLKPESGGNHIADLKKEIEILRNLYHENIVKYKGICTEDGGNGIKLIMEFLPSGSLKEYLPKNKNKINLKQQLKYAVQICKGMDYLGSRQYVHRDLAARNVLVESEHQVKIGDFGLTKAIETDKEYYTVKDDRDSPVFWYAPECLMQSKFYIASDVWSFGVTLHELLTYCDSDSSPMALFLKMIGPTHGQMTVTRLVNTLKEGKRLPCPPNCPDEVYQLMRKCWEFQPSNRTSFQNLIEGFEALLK
Tyrosine-protein kinase JAK2 (Homo sapiens), sequence (O60674 whole entry, the tested form may be a part): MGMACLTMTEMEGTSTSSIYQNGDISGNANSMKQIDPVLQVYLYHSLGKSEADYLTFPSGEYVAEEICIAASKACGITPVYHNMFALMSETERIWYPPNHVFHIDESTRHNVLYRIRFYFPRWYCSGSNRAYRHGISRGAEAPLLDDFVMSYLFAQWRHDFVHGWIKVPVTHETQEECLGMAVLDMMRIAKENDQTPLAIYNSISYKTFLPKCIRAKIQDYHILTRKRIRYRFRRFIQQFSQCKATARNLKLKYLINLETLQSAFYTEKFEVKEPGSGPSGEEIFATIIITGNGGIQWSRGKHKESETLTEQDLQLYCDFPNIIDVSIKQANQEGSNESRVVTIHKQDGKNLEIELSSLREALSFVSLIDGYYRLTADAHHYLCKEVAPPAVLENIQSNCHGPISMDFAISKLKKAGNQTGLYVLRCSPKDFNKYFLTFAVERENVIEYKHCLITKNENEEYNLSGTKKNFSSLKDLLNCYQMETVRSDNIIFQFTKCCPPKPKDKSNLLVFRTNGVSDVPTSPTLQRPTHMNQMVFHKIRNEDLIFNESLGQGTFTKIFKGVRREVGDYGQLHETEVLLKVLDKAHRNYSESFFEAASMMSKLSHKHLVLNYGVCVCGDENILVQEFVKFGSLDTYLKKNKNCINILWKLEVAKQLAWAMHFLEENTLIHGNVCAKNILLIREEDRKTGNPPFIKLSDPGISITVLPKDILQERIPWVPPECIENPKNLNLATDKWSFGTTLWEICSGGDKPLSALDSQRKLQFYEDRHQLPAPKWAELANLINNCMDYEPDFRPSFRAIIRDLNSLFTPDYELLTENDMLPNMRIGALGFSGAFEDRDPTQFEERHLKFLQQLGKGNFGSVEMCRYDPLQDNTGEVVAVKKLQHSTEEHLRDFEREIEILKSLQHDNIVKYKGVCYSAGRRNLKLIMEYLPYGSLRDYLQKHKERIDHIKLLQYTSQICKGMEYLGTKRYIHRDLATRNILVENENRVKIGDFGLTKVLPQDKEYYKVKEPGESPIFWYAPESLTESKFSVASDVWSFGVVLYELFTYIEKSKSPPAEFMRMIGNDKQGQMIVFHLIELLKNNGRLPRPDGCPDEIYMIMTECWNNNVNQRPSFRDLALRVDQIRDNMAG

inhibition [1] [%]	inhibition [2] [%]	inhibition [3] [%]	inhibition [4] [%]	inhibition [5] [%]	inhibition [6] [%]	inhibition [7] [%]	inhibition [8] [%]	inhibition [9] [%]	inhibition [10] [%]	inhibition [11] [%]	Compound	IC50 (PBMC) [nM]
0	7	6	38	36	11	3	70	-1	6	-4	OCc1ccc(-c2cc3c(N[C@H](CO)c4ccccc4)ncnc3[nH]2)cc1	1400
1	5	2	17	32	7	5	49	3	7	0	CN(C)CCn1cc(-c2cccc(O)c2)c2c(N)ncnc21	1200
-2	1	-9	20	3	12	11	7	-2	1	-1	OC[C@@H](Nc1ncnc2sc(-c3ccc(O)cc3)cc12)c1ccccc1	2800
3	5	5	7	19	14	8	27	3	13	-4	CCC(=O)Nc1ccc(-c2c[nH]c3ncnc(N[C@H](C)c4ccccc4)c23)cc1	2100
